# Assays:
# Prothrombin [1] = molecular target: T1, Prothrombin (Homo sapiens, UniProt P00734); experiment: Inhibition of thrombin-catalyzed hydrolysis of a standard substrate
# Prothrombin [2] = molecular target: T1, Prothrombin; experiment: Binding affinity towards thrombin was determined
# Serine protease 1 = Serine protease 1 (Homo sapiens, UniProt P07477); experiment: Binding affinity towards trypsin was determined
# Chain of Serine protease 1 (P07477 whole entry): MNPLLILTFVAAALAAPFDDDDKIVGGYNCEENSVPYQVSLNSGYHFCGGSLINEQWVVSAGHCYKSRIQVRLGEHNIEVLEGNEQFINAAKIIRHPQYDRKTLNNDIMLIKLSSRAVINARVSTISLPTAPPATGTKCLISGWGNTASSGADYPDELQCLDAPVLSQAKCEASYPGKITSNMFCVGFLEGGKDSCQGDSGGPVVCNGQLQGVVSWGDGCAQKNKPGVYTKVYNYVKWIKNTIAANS
Compound,IC50 (Prothrombin [1]) [µM],Ki (Prothrombin [2]) [µM],Ki (Serine protease 1) [µM]
NC1CCC(CNC(=O)[C@@H]2CCCN2C(=O)CC2c3ccccc3-c3ccccc32)CC1 (some centres not stated),0.106,,
NC1CCC(CNC(=O)[C@@H]2CCCN2C(=O)C23CC4CC(CC(C4)C2)C3)CC1 (some centres not stated),0.12,,
COc1cc(C(O)C(=O)N2CCC[C@H]2C(=O)NCC2CCC(N)CC2)ccc1O (some centres not stated),0.011,0.0025,
N#C/C(=C\c1ccccc1)C(=O)N1CCC[C@H]1C(=O)NCC1CCC(N)CC1 (some centres not stated),0.14,,
NC1CCC(CNC(=O)[C@@H]2CCCN2C(=O)C2c3ccccc3-c3ccccc32)CC1 (some centres not stated),0.38,,
NC1CCC(CNC(=O)[C@@H]2CCCN2C(=O)C2CCc3ccccc3C2)CC1 (some centres not stated),0.91,,
N[C@H]1CC[C@H](CNC(=O)[C@@H]2CCCN2C(=O)C2(O)c3ccccc3-c3ccccc32)CC1,0.004,,0.86
NC1CCC(CNC(=O)[C@@H]2CCCN2C(=O)C2CC2(c2ccccc2)c2ccccc2)CC1 (some centres not stated),0.19,,
NC1CCC(CNC(=O)[C@@H]2CCCN2C(=O)C(Cc2ccc(O)cc2)c2ccccc2)CC1 (some centres not stated),0.01,0.0025,
COc1ccccc1CCC(=O)N1CCC[C@H]1C(=O)NCC1CCC(N)CC1 (some centres not stated),0.23,,

# More lines, in order of falling IC50 (Prothrombin [1]), values ahead:
IC50 (Prothrombin [1]) [µM],Compound,Ki (Prothrombin [2]) [µM],Ki (Serine protease 1) [µM]
0.1,NC1CCC(CNC(=O)[C@@H]2CCCN2C(=O)C2COc3ccccc3O2)CC1 (some centres not stated),0.075,
0.09,NC1CCC(CNC(=O)[C@@H]2CCCN2C(=O)C2CC(=O)N3CCc4ccccc4C23)CC1 (some centres not stated),,
0.06,CN1C(=O)C[C@@H](c2cccnc2)[C@@H]1C(=O)N1CCC[C@H]1C(=O)NCC1CCC(N)CC1 (some centres not stated),,
0.057,NC1CCC(CNC(=O)[C@@H]2CCCN2C(=O)C(Cc2ccccc2)c2ccccc2)CC1 (some centres not stated),,
0.05,COc1cc(CC(=O)N2CCC[C@H]2C(=O)NCC2CCC(N)CC2)cc(OC)c1OC (some centres not stated),,
0.006,CN[C@H](Cc1ccccc1)C(=O)N1CCC[C@H]1C(=O)NC[C@H]1CC[C@H](N)CC1,0.0049,
0.005,CCCCC(CC(=O)N1CCC[C@H]1C(=O)NCC1CCC(N)CC1)c1ccccc1 (some centres not stated),,
